{"source": "patent US20110209699A1", "about": "“COMBINATION OF DEHYDROEPIANDROSTERONE OR DEHYDROEPIANDROSTERONE-SULFATE WITH A LIPOXYGENASE INHIBITOR FOR TREATMENT OF ASTHMA OR CHRONIC OBSTRUCTIVE PULMONARY DISEASE” (priority 2003, published 2011)", "key": {"Intracellular adenosine": {"test_system": "Intracellular adenosine", "experiment": "In vivo effect on adenosine levels in various rat tissues", "design": "species or system Fischer 344 rats", "details": "for Intracellular adenosine (nmols)/mg protein, Brain: rat brain, control 0.5 ± 0.04", "procedure": "Folinic acid (50 mg/kg) was administered intraperitoneally once daily for fourteen days. […] Hearts were removed from animals and flash frozen in liquid nitrogen with 10 s of death. Liver and lungs were removed en bloc and flash frozen with 30 s of death. Brain tissue was subsequently dissected."}, "[1]": {"experiment": "HPLC analysis of drug degradation during jet milling micronization", "type": "physicochemical", "details": "single and double pass jet-milled powder vs unmilled standard, HPLC peak area", "procedure": "Approximately 1 g sample was passed through the jet mill, once, and approximately 2 g sample were passed through the jet mill twice. […] The resulting solution was sonicated for 3 minutes and appeared fully dispersed. The dispersed solutions were tested on a Malvern Mastersizer X with a small volume sampler (SVS) attachment. One sample of dispersed material was tested 5 times. The median particle size or D (v, 0.5) of unmilled material was 52.56 μm and the % RSD (relative standard deviation) was 7.61 for the 5 values. The D (v, 0.5) for a single pass through the jet mill was 3.90 μm and the % RSD was 1.27, and the D (v, 0.5) from a double pass through the jet mill 3.25 μm and the % RSD was 3.10.\nTwo vials (A; single-pass; 150 mg) and (B double-pass; 600 mg) of the micronized drug were available for determining drug degradation during jet milling micronization. […] The chromatographic peak area for the HPLC assay of the unmilled drug standard solution (10 mg/ml) gave a value of 23,427. […] The chromatographic peak areas for vials A and B were 11,979 and 11,677, respectively."}, "HT-29 SF cells [2]": {"test_system": "HT-29 SF cells", "experiment": "Reversal of DHEA-mediated growth inhibition", "type": "cell-based, human", "details": "25 μM DHEA, 48 hour treatment; MVA 2 μM, SQ 80 μM, CH 15 μg/ml, RN 30 μM each, DN 20 μM each"}, "HT-29 SF cells [3]": {"test_system": "HT-29 SF cells", "experiment": "Reversal of DHEA effect on cell cycle", "type": "cell-based, human", "details": "25 μM DHEA"}, "[4]": {"experiment": "Solubility of DHEA-S as a function of NaCl concentration and temperature", "type": "physicochemical", "details": "for equilibrium constant Ksp=[DHEA-S-][Na+]: slope of solubility vs reciprocal sodium concentration", "description": "Inhalation of pure water can produce a cough stimulus. […] The temperature effect is weaker at high NaCl concentrations."}, "HT-29 SF cells [5]": {"test_system": "HT-29 SF cells", "experiment": "DHEA effect on cell cycle (flow cytometry)", "type": "cell-based, human", "details": "25, 50 or 200 μM; 24, 48, 72 hours; propidium iodide DNA content"}, "HT-29 SF cells [6]": {"test_system": "HT-29 SF cells", "experiment": "DHEA effect on cell growth (Coulter counter)", "details": "0, 12.5, 25, 50 or 200 μM; cell number at 0, 24, 48, 72 hours", "protocol": "Cell cultures, HT-29 SF cells, which represent a subline of HY-29 cells (ATCC, Rockville, Md.) and are adapted for growth in completely defined serum-free PC-1 medium (Ventrex, Portland, Me.), were obtained. Stock cultures were maintained in this medium at 37° C. (in a humidified atmosphere containing 5% CO2)."}, "[7]": {"experiment": "Physicochemical testing before and after micronization", "details": "for Particle size (D50%): laser diffraction; for Water (% w/w): Karl Fischer", "procedure": "Surface area is determined using five point BET analyses are performed with nitrogen as the adsorbing gas (P/Po=0.05 to 0.30) using a Micromeritics TriStar surface area analyzer. Particle size distributions are measured by laser diffraction using a Micromeritics Saturn Digisizer where the particles are suspended in mineral oil with sodium dioctyl sodium sulfosuccinate as a dispersing agent. Drug substance water content is measured by Karl Fischer titration (Schott Titroline KF). Pure water is used as the standard and all relative standard deviations for triplicates are less than 1%. Powder is added directly to the titration media."}, "[8]": {"experiment": "Short-term solution stability of nebulizer formulation", "type": "physicochemical", "details": "10 mg/mL in 0.12% NaCl, clear glass vials", "procedure": "Aliquots of this solution are filled into clear glass vials and stored at RT (24-26° C.) and at 40° C. The samples are checked daily for DHEA-S content, DHEA content, and appearance. For each time point, duplicate samples are withdrawn and diluted from each vial. […] The study is stopped on day three. […] The solution should easily be stable for the day of reconstitution in a clinical trial. The following section describes the aerosol properties of this formulation."}, "[9]": {"test_system": "rat peritoneal mast cells", "experiment": "Mast cell degranulation (histamine secretion) after compound 48/80", "type": "cell-based", "details": "at 0.1 uM; 0.1 μg/ml compound 48/80; 2 min at 37° C.", "description": "Leukotrienes are synthesized—though not exclusively by the mast cell (Gilchrist, M., McCauley, S. D., & Befus, A. D. (2004) Expression, localization, and regulation of NOS in human mast cell lines: effects on leukotriene production. Blood 104, 462-469). We determined whether DHEA-sulfate would reduce mast cell degranulation after stimulation with compound 48/80 in rat peritoneal mast cells. Mast cell degranulation was quantified by measurement of histamine, another substance contained within the secretory granules of mast cells. The release of histamine is believed to parallel the release of leukotrienes.\nFreshly isolated rat peritoneal mast cells (2×10^5 cells) were pre-incubated for 5 min at 37° C. in a Balanced Salt Solution containing 150 mM NaCl (pH 7.4), 2.7 mM KCl, 0.9 mM CaCl2, 4 mM Na2HPO4, 2.7 mM KH2PO4, 1.75 mg/ml BSA and 0.1 μg/ml compound 48/80.\nFollowing incubation, the mixture is cooled to 4° C. then centrifuged at 4500 rpm for 5 min. The supernatant is collected and mixed for 30 min at 4° C. with 5% TCA (trichloroacetic acid) to cause protein precipitation. […]\nThe amount of secreted histamine is quantified by measuring the fluorescence intensity at λex=360 nm and λem=450 nm using a spectrofluorimeter (GeminiXS, Molecular Devices). The results are expressed as a percent inhibition of control histamine secretion."}, "[10]": {"details": "calculated for 20 mM Na+ (0.12% NaCl), Ksp 1316 mM^2, 15° C."}}, "data": [{"smiles": "Nc1nc(=O)c2c([nH]1)NCC(CNc1ccc(C(=O)N[C@@H](CCC(=O)O)C(=O)O)cc1)N2C=O", "note": "(mixture of isomers) [Folinic Acid]", "values": [{"measurement": "Intracellular adenosine (nmols)/mg protein, Brain", "setting": "Intracellular adenosine; once daily 14 days, DHEA 300 mg/kg or methyltestosterone 40 mg/kg by gavage, folinic acid 50 mg/kg i.p., alone or combined, mean ± SEM", "result": "0.72 ± 0.09", "unit": "nmols/mg protein"}, {"measurement": "Intracellular adenosine (nmols)/mg protein, Heart", "setting": "Intracellular adenosine; rat heart, once daily 14 days, DHEA 300 mg/kg or methyltestosterone 40 mg/kg by gavage, folinic acid 50 mg/kg i.p., alone or combined, mean ± SEM, control 10.6 ± 0.6", "result": "12.4 ± 2.1", "unit": "nmols/mg protein"}, {"measurement": "Intracellular adenosine (nmols)/mg protein, Liver", "setting": "Intracellular adenosine; rat liver, once daily 14 days, DHEA 300 mg/kg or methyltestosterone 40 mg/kg by gavage, folinic acid 50 mg/kg i.p., alone or combined, mean ± SEM, control 14.5 ± 1.0", "result": "16.4 ± 2.4", "unit": "nmols/mg protein"}, {"measurement": "adenosine levels when administered alone", "setting": "Intracellular adenosine; rat, in vivo", "result": "increase in adenosine levels for all organs studied"}, {"measurement": "effect of coadministration on steroid-mediated adenosine depletion", "setting": "Intracellular adenosine; rats, folinic acid 50 mg/kg i.p. with DHEA or methyltestosterone, 14 days", "result": "completely abrogated steroid-mediated adenosine depletion"}]}, {"smiles": "C[C@]12CC[C@H](OS(=O)(=O)[O-])CC1=CC[C@@H]1[C@@H]2CC[C@]2(C)C(=O)CC[C@@H]12.[Na+]", "note": "[Anhydrous DHEA-S]", "values": [{"measurement": "drug degradation during jet milling micronization", "setting": "[1]", "result": "no detectable degradation"}]}, {"smiles": "CC(C)CCC[C@@H](C)[C@H]1CC[C@H]2[C@@H]3CC=C4C[C@@H](O)CC[C@]4(C)[C@H]3CC[C@]12C", "note": "[CH, cholesterol]", "values": [{"measurement": "reversal of DHEA-induced growth inhibition by medium supplement", "setting": "HT-29 SF cells [2]", "result": "no such effect"}, {"measurement": "prevention of DHEA-induced S phase depletion by medium supplement", "setting": "HT-29 SF cells [3]; 48 hours", "result": "very little effect"}, {"measurement": "prevention of DHEA-induced S phase depletion by medium supplement", "setting": "HT-29 SF cells [3]; 72 hours", "result": "no effect"}]}, {"smiles": "C[C@]12CC[C@H](O)CC1=CC[C@@H]1[C@@H]2CC[C@]2(C)C(=O)CC[C@@H]12", "note": "[DHEA, 3β-hydroxyandrost-5-en-17-one]", "values": [{"measurement": "Intracellular adenosine (nmols)/mg protein, Heart", "setting": "Intracellular adenosine; rat, in vivo", "result": "6.7 ± 0.5"}, {"measurement": "solubility in water", "setting": "[4]; water", "result": "insoluble"}, {"measurement": "effect on cell cycle distribution", "setting": "HT-29 SF cells [5]", "result": "G1 block in HT-29 SF cells in a time- and dose-dependent manner"}, {"measurement": "inhibition of growth", "setting": "HT-29 SF cells [6]", "result": "time- and dose-dependent inhibition of growth"}]}, {"smiles": "CC12CCC3C(CC=C4CC(OS(=O)(=O)[O-])CCC43C)C1CCC2=O.[Na+]", "note": "(stereo not drawn) [DHEA-S dihydrate]", "values": [{"measurement": "Particle size (D50%)", "setting": "[7]; Bulk, before micronization", "result": 31, "unit": "microns"}, {"measurement": "Water (% w/w)", "setting": "[7]; Bulk", "result": 8.5, "unit": "% w/w"}, {"measurement": "Particle size (D50%)", "setting": "[7]; Micronized (jet mill)", "result": 3.7, "unit": "microns"}, {"measurement": "Water (% w/w)", "setting": "[7]; Micronized", "result": 8.4, "unit": "% w/w"}, {"measurement": "Surface area (m^2/g)", "setting": "[7]; Micronized, five point BET", "result": 4.9, "unit": "m^2/g"}]}, {"smiles": "C[C@]12CC[C@H](OS(=O)(=O)[O-])CC1=CC[C@@H]1[C@@H]2CC[C@]2(C)C(=O)CC[C@@H]12.[Na+]", "note": "[DHEA-S, sodium dehydroepiandrostenone sulfate]", "values": [{"measurement": "equilibrium constant Ksp=[DHEA-S-][Na+]", "setting": "[4]; RT (24-25° C.)", "result": 2236, "unit": "mM^2"}, {"measurement": "estimated DHEA-S solution concentration", "setting": "[4]; [10]", "result": 10.7, "unit": "mg/mL"}, {"measurement": "estimated DHEA-S- solution concentration", "setting": "[4]; [10]", "result": 27.5, "unit": "mM"}, {"measurement": "equilibrium constant Ksp=[DHEA-S-][Na+]", "setting": "[4]; refrigerated (7-8° C.)", "result": 665, "unit": "mM^2"}, {"measurement": "solution appearance on storage", "setting": "[8]; 40° C.", "result": "became cloudy after two days of storage"}, {"measurement": "solution appearance on storage", "setting": "[8]; RT (24-26° C.)", "result": "slight precipitate is observed on the third day"}, {"measurement": "maximal effect, percent inhibition of control histamine secretion", "setting": "[9]", "result": 69.9, "unit": "%"}]}, {"smiles": "C[C@@](O)(CCO)CC(=O)O", "note": "[MVA, mevalonic acid]", "values": [{"measurement": "reversal of DHEA-induced growth inhibition by medium supplement", "setting": "HT-29 SF cells [2]", "result": "partially overcome"}, {"measurement": "prevention of DHEA-induced S phase depletion by medium supplement", "setting": "HT-29 SF cells [3]; 48 hours", "result": "partially prevented this effect"}, {"measurement": "prevention of DHEA-induced S phase depletion by medium supplement", "setting": "HT-29 SF cells [3]; 72 hours", "result": "not after 72 hours"}]}, {"smiles": "C[C@]12CCC(=O)C=C1CC[C@@H]1[C@@H]2CC[C@@]2(C)[C@H]1CC[C@]2(C)O", "note": "[Methyltestosterone]", "values": [{"measurement": "Intracellular adenosine (nmols)/mg protein, Brain", "setting": "Intracellular adenosine; methyltestosterone 120 mg/kg, alone or + folinic acid 50 mg/kg, mean ± SEM", "result": "0.32 ± 0.03", "unit": "nmols/mg protein"}, {"measurement": "Intracellular adenosine (nmols)/mg protein, Heart", "setting": "Intracellular adenosine; rat heart, methyltestosterone 120 mg/kg, alone or + folinic acid 50 mg/kg, mean ± SEM, control 10.6 ± 0.6", "result": "6.0 ± 0.4", "unit": "nmols/mg protein"}, {"measurement": "Intracellular adenosine (nmols)/mg protein, Liver", "setting": "Intracellular adenosine; rat liver, methyltestosterone 120 mg/kg, mean ± SEM, control 14.5 ± 1.0", "result": "5.1 ± 0.5", "unit": "nmols/mg protein"}, {"measurement": "Intracellular adenosine (nmols)/mg protein, Liver", "setting": "Intracellular adenosine; rat, in vivo", "result": "16.5 ± 0.9", "unit": "nmols/mg protein"}]}, {"smiles": "CC(C)=CCC/C(C)=C/CC/C(C)=C/CC/C=C(\\C)CC/C=C(\\C)CCC=C(C)C", "note": "[SQ, squalene]", "values": [{"measurement": "reversal of DHEA-induced growth inhibition by medium supplement", "setting": "HT-29 SF cells [2]", "result": "no such effect"}]}]}
